Article PMC12565300, “Novel Cyclic Tetrapeptides as Neuraminidase Inhibitors from a Sponge-Associated Penicillium sp. SCSIO41035” (Marine Drugs, 2025)

test system: two human carcinoma cell lines; conditions: first of two human carcinoma cell lines; ref [7]; read-out: IC50 against human carcinoma cell line (first of two, unnamed); cited from earlier work
Excerpt: Cyclic tetrapeptides are a class of natural products with significant potential in drug discovery, characterized by their unique structural features and diverse biological activities. Their cyclic structure confers stability and contributes to their potency, while their low molecular weight and favorable lipophilicity enhance drug-like properties. […] The presence of hydr ...

Compound | IC50 [µM]
Asperterrestide A | 6.2

same assay, conditions: second of two human carcinoma cell lines; ref [7]; read-out: IC50 against human carcinoma cell line (second of two, unnamed); cited from earlier work

Compound | IC50 [µM]
Asperterrestide A | 6.4

test system: neuraminidase; conditions: 100 µg/mL; Mean ± SD (n not given); fluorogenic substrate, 37 °C, 30 min; ex 322 nm, em 450 nm; compound in DMSO
Description: 4.8. Neuraminidase Inhibitory Assay
The neuraminidase inhibitory activity was evaluated using a Neuraminidase In-hibitor Screening Kit (Beyotime Institute of Biotechnology, Shanghai, China). Assays were carried out in 96-well plates. For each well, 70 μL of neuraminidase assay buffer, 10 μL of neuraminidase solution, and 10 μL of test compound (dissolved in DMSO; final con-centration 100 μg/mL) were gently mixed. The reaction was initiated by adding 10 μL of the fluorogenic substrate to each well, and the plate was incubated at 37 °C for 30 min. Fluorescence was measured on an EnSpire microplate reader with excitation at 322 nm and emission at 450 nm. The fluorescence intensity of neuraminidase was measured at several concentrations to generate a standard curve relating fluorescence signal to enzyme concentration. The fluorescence corresponding to the highest neuraminidase concentration was set as 0% inhibition. Each sample well initially contained neuraminidase at this concentration, and the residual neuraminidase concentration after the reaction was determined from the measured fluorescence using the standard-curve equation. The inhibition percentages were then calculated.

Compound | Inhibition Rate (neuraminidase inhibitory activity) [%]
CC12NC(=O)C(C[C@]13C(=O)Nc1ccccc13)n1c2nc2ccccc2c1=O (stereo partly drawn) [Compound 8, alantrypinone] | 43.85 ± 1.41
O=C1N[C@@]2(CO)c3nc4ccccc4c(=O)n3[C@@H]1C[C@@]21C(=O)Nc2ccccc21 [Compound 9, serantrypinone] | 51.67 ± 0.42
CC(C)/C=C1\NC(=O)[C@H](CCC(N)=O)n2c1nc1ccccc1c2=O [Compound 10, aurantiomide C] | 67.54 ± 0.87
Penicopeptide B [Compound 1] | 52.90 ± 0.37
Penicopeptide C [Compound 2] | 43.16 ± 1.23
Penicopeptide D [Compound 3] | 58.67 ± 3.51
Penicopeptide E [Compound 4] | 74.01 ± 1.32
Penicopeptide F [Compound 5] | 85.40 ± 0.85
Penicopeptide G [Compound 6] | 63.65 ± 0.67
Penicopeptide H [Compound 7] | 57.78 ± 0.44
